Test results from patent publication US11021521B2, “Pore-modified gram-negative bacteria and uses thereof” (priority 2015, dated 2021).
≈ marks a conversion by molar mass, not a printed value. Where two headings read alike, the source gives them in different places.

How the values were obtained:
Test in all cases: microbe, parasite or virus in culture
Assay type in all cases: cell-based
[1] = test system: A. baumannii Ab-ARA (wild type, empty cassette); details: at least three independent measurements
[2] = test system: A. baumannii AbΔ3-ARA-EcPore (efflux-deficient, hyperporinated); details: AbΔ3-ARA-EcPore, at least three independent measurements
[3] = test system: P. aeruginosa PaΔ3-LAC (efflux-deficient); details: Pseudomonas aeruginosa, at least three independent measurements, read-out: MIC
[4] = test system: B. thailandensis BtΔ2-RHA (efflux-deficient)
[5] = test system: B. cepacia Bc-RHA-BtPore (hyperporinated); details: for MIC: Bc-RHA-BtPore; for Fold decrease of MIC (potentiation) by hyperporination: Bc: Bc-RHA-BtPore vs parent
[6] = test system: B. thailandensis Bt-RHA (wild type, empty cassette)
[7] = test system: P. aeruginosa PAO1-LAC-EcPore (hyperporinated); details: for MIC: Pseudomonas aeruginosa, PAO1-LAC-EcPore, at least three independent measurements, read-out: MIC; for Fold decrease of MIC (potentiation) by hyperporination: Pae: PAO1-LAC-EcPore vs parent
[8] = test system: B. thailandensis BtΔ2-RHA-BtPore (efflux-deficient, hyperporinated)
[9] = test system: B. cepacia Bc-RHA (wild type, empty cassette)
[10] = test system: B. thailandensis Bt-RHA-BtPore (hyperporinated)
[11] = test system: A. baumannii Ab-ARA-EcPore (hyperporinated); details: for MIC: Ab-ARA-EcPore, at least three independent measurements; for Fold decrease of MIC (potentiation) by hyperporination: Abau: Ab-ARA-EcPore vs parent
[12] = test system: A. baumannii AbΔ3-ARA (efflux-deficient); details: AbΔ3-ARA, at least three independent measurements
[13] = test system: P. aeruginosa PAO1-LAC (wild type, empty cassette); details: at least three independent measurements
[14] = test system: P. aeruginosa PaΔ3-LAC-EcPore (efflux-deficient, hyperporinated); details: Pseudomonas aeruginosa; PaΔ3-LAC-EcPore; at least three independent measurements; read-out: MIC
[15] = Acinetobacter baumannii, read-out: MIC
[16] = Burkholderia cepacia, read-out: MIC

Compound	MIC [1, 15] [µg/mL]	MIC [2, 15] [µg/mL]	MIC [3] [µg/mL]	MIC ([4]; Burkholderia thailandensis) [µg/mL]	MIC [5, 16] [µg/mL]	MIC ([6]; Burkholderia thailandensis) [µg/mL]	MIC [7] [µg/mL]	MIC ([8]; Burkholderia thailandensis) [µg/mL]	MIC [9, 16] [µg/mL]	MIC ([10]; Burkholderia thailandensis) [µg/mL]	MIC [11, 15] [µg/mL]	MIC [12, 15] [µg/mL]	MIC [14] [µg/mL]	other results
CC[C@H]1OC(=O)[C@H](C)[C@@H](O[C@H]2C[C@@](C)(OC)[C@@H](O)[C@H](C)O2)[C@H](C)[C@@H](O[C@@H]2O[C@H](C)C[C@H](N(C)C)[C@H]2O)[C@](C)(O)C[C@@H](C)C(=O)[C@H](C)[C@@H](O)[C@]1(C)O [Erythromycin]	5 (≈ 6.81 µM)	0.08 (≈ 0.109 µM)	16 (≈ 21.8 µM)	1 (≈ 1.36 µM)	8 to 16 (≈ 10.9 to 21.8 µM)	512 (≈ 698 µM)	2 (≈ 2.73 µM)	0.5 (≈ 0.681 µM)						
NC[C@H]1O[C@H](O[C@H]2[C@H](O)[C@@H](O[C@H]3O[C@H](CO)[C@@H](O)[C@H](N)[C@H]3O)[C@H](N)C[C@@H]2N)[C@H](O)[C@@H](O)[C@@H]1O [Kanamycin]				4 (≈ 8.26 µM)	4 to 8 (≈ 8.26 to 16.5 µM)	> 64		2 (≈ 4.13 µM)	64 (≈ 132 µM)	64 (≈ 132 µM)				
C[C@H]1COc2c(N3CCN(C)CC3)c(F)cc3c(=O)c(C(=O)O)cn1c23 [Levofloxacin]	0.125 (≈ 0.346 µM)				0.06 (≈ 0.166 µM)	2 (≈ 5.53 µM)	0.063 (≈ 0.174 µM)		2 (≈ 5.53 µM)	1 (≈ 2.77 µM)	0.125 (≈ 0.346 µM)			
C[C@@H](O)[C@H]1C(=O)N2C(C(=O)O)=C(S[C@@H]3CN[C@H](C(=O)N(C)C)C3)[C@H](C)[C@H]12 [Meropenem]	0.25 (≈ 0.652 µM)	0.063 (≈ 0.164 µM)	0.125 (≈ 0.326 µM)	0.25 (≈ 0.652 µM)	0.125 (≈ 0.326 µM)	1 (≈ 2.61 µM)	0.25 (≈ 0.652 µM)	0.03 (≈ 0.0782 µM)	> 4	1 (≈ 2.61 µM)	0.063 (≈ 0.164 µM)	0.125 (≈ 0.326 µM)	0.03 (≈ 0.0782 µM)	Fold decrease of MIC (potentiation) by hyperporination [11]: 2-4 fold; MIC ([13]; Pseudomonas aeruginosa, read-out: MIC): 0.5 µg/mL (≈ 1.3 µM); Fold decrease of MIC (potentiation) by hyperporination [5]: > 32 fold; Fold decrease of MIC (potentiation) by hyperporination [7]: 2-4 fold
CCn1cc(C(=O)O)c(=O)c2ccc(C)nc21 [Nalidixic acid]	3 (≈ 12.9 µM)	0.75 (≈ 3.23 µM)	8 (≈ 34.4 µM)	12 (≈ 51.7 µM)	3 (≈ 12.9 µM)	48 (≈ 207 µM)	32 (≈ 138 µM)	1.5 (≈ 6.46 µM)	24 (≈ 103 µM)	24 (≈ 103 µM)	1.5 (≈ 6.46 µM)	1.5 (≈ 6.46 µM)	2 (≈ 8.61 µM)	
CO[C@@H]1[C@@H](OC(N)=O)[C@@H](O)[C@H](Oc2ccc3c(O)c(NC(=O)c4ccc(O)c(CC=C(C)C)c4)c(=O)oc3c2C)OC1(C)C [Novobiocin]	3.1 (≈ 5.06 µM)	0.025 (≈ 0.0408 µM)	32 (≈ 52.2 µM)	0.25 (≈ 0.408 µM)	0.125 (≈ 0.204 µM)	8 (≈ 13.1 µM)	64 (≈ 104 µM)	0.008 (≈ 0.0131 µM)	8 (≈ 13.1 µM)	4 (≈ 6.53 µM)	1.56 (≈ 2.55 µM)	0.025 (≈ 0.0408 µM)	4 (≈ 6.53 µM)	Fold decrease of MIC (potentiation) by hyperporination [11]: 2 fold; MIC [13]: 512 µg/mL (≈ 836 µM); Fold decrease of MIC (potentiation) by hyperporination [10]: 2 fold; Fold decrease of MIC (potentiation) by hyperporination [5]: 16-32 fold; Fold decrease of MIC (potentiation) by hyperporination [7]: 16-32 fold
CO[C@H]1/C=C/O[C@@]2(C)Oc3c(C)c(O)c4c(O)c(c(/C=N/N5CCN(C)CC5)c(O)c4c3C2=O)NC(=O)/C(C)=C\C=C\[C@H](C)[C@H](O)[C@@H](C)[C@@H](O)[C@@H](C)[C@H](OC(C)=O)[C@@H]1C [Rifampin]	2 (≈ 2.43 µM)	0.25 (≈ 0.304 µM)		4 (≈ 4.86 µM)	0.06 (≈ 0.0729 µM)	16 (≈ 19.4 µM)		0.03 (≈ 0.0365 µM)	8 (≈ 9.72 µM)	8 (≈ 9.72 µM)	0.5 (≈ 0.608 µM)	1 (≈ 1.22 µM)		
CN(C)[C@@H]1C(O)=C(C(N)=O)C(=O)[C@@]2(O)C(O)=C3C(=O)c4c(O)cccc4[C@@](C)(O)[C@H]3C[C@@H]12 [Tetracycline]	0.125 (≈ 0.281 µM)	0.004 (≈ 0.009 µM)	2 (≈ 4.5 µM)	0.125 (≈ 0.281 µM)	8 (≈ 18 µM)	2 (≈ 4.5 µM)	0.5 (≈ 1.13 µM)	0.06 (≈ 0.135 µM)	> 8	2 (≈ 4.5 µM)	0.031 (≈ 0.0698 µM)	0.008 (≈ 0.018 µM)	0.125 (≈ 0.281 µM)	
Gentamicin														MIC [1]: 4 µg/mL; MIC [11]: 4 µg/mL; MIC [2]: 8 µg/mL; MIC [12]: 8 µg/mL; MIC [4]: 4 µg/mL; MIC [9]: 128 µg/mL; MIC [10]: >64 µg/mL; MIC [5]: 16 µg/mL; MIC [6]: >64 µg/mL; MIC [8]: 2 µg/mL
